Results from PubChem BioAssay AID1421 (Emory University Molecular Libraries Screening Center, 2008).

The molecules below were run against Prostaglandin E2 receptor EP2 subtype (Homo sapiens) (UniProt P43116) (assay: EP2 receptor modulators, dose response, cell-based, human EP2, PGE2 EC50 shift (AID 1421)). Settings: EP2-expressing cells, PGE2 EC50 shift by compound; measured here: PGE2 EC50 at 6.7 uM compound.
Prostaglandin E2 receptor EP2 subtype (Homo sapiens), sequence (P43116 whole entry, looked up): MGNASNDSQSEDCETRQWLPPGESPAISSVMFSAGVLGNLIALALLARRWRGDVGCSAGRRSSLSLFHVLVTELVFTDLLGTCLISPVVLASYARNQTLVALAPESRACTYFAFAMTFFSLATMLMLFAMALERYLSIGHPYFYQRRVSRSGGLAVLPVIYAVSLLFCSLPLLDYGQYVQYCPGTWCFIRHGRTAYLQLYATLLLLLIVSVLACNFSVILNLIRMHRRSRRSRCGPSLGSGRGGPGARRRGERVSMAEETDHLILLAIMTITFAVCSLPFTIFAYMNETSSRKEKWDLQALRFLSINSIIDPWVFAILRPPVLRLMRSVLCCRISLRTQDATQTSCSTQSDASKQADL

Structure (SMILES) | PGE2 EC50 with compound [nM]
CC(OC(=O)c1oc2ccccc2c1COc1ccccc1)C(=O)NC(N)=O (configuration not stated) | 2.83
O=C(Nc1cccc(Cl)c1N1CCCCC1)c1ccc2c(c1)OCCO2 | 0.64
O=C(O)c1cc(C(=O)O)cc(N2C(=O)c3ccccc3C2=O)c1 | 0.83
CCOC(=O)CC(=O)CSc1ncnc2c1oc1ccccc12 | 2.64
COc1cc2ccccc2cc1C(=O)NC(=S)Nc1cc(C(=O)O)ccc1C | 3.08
CCCSc1nc(N2CCOCC2)c2c(c1C#N)CCCC2 | 1.06
S=C(Nc1ccccc1Cl)N(Cc1ccccc1)Cc1ccccn1 | 1.62
Cc1cc(Nc2ccc(Br)cc2)n2nc(C)nc2n1 | 1.06
CCn1ncc(Cl)c1C(=O)Nc1cc(Cl)ccc1Cl | 0.7
O=C1CCC(c2ccccc2)=NN1Cc1c(F)cccc1Cl | 0.9
CC(=O)N1c2ccccc2C(C)CC12CCCCC2 (configuration not stated) | 2.48
CSc1nc(Sc2ccccc2)c2ccccc2n1 | 1.6
Cn1c(C(=O)N2CCCc3ccccc32)cc2sccc21 | 2.41
COc1cccc(OCC(=O)Nc2ccccc2-c2ccccc2)c1 | 1.17
COc1ccc(OC)c(C2=Nn3c(nnc3-c3ccco3)SC2)c1 | 0.93
Brc1cccc(-c2nnc(SCc3ccon3)n2-c2ccccc2)c1 | 1.06
CCOC(=O)C1=C(N)OC2=C(C(=O)CC(C)(C)C2)C1c1ccc(CC)s1 (configuration not stated) | 0.96
Cc1cc(C(=O)NCC(c2ccco2)N(C)C)no1 (configuration not stated) | 2.55
CCOC(=O)COc1cc(Br)c(/C=N/Nc2ccccc2)cc1OC | 2.69

Structure (SMILES) | PGE2 EC50 with compound [nM]
Nc1c(C(=O)NCc2ccccc2)c2nc3ccccc3nc2n1CCCN1CCOCC1 | 1.09
c1ccc(CCc2ccccc2-c2nc(-c3ccccn3)no2)cc1 | 0.32
Cc1ccc(S(=O)(=O)N(CC(=O)N=Nc2c(O)[nH]c3ccccc23)c2ccc(C)c(C)c2)cc1 | 2.05
CCN1C(=O)/C(=C2/C=CC=CN2C)SC1=S | 1.64
O=S(=O)(c1ccccc1)N(Cc1nc(-c2ccccc2)no1)C1CCCCC1 | 1.26
CC1(C)Oc2ccc(C(=O)N3CCOCC3)cc2N(CC(=O)N2CCOCC2)C1=O | 1.69
COc1cccc2[nH]c3c(N4CCCC(C)C4)ncnc3c12 (configuration not stated) | 23.2
Cn1c(=O)c2c(nc(SCC(=O)N3CCc4ccccc4C3)n2C)n(C)c1=O | 1.51
COc1ccc(C2CC(C(F)(F)F)n3nc(C(N)=O)c(Cl)c3N2)cc1OC (configuration not stated) | 0.71
Cc1ccc(C(=O)O)cc1NC(=S)NC(=O)c1ccc(-c2ccccc2)cc1 | 0.83
FC(F)(F)c1nc(=S)c2ccccc2[nH]1 | 2.84
CCC1(C)Cc2ccccc2-c2nc3n(c(=O)c21)CCS3 (configuration not stated) | 1.37
Cc1nn2c(N3CCCC3)cc(C(C)C)nc2c1-c1ccccc1 | 0.84
CCc1ccc2nc(-c3cccc(C)c3)nc(SCC(=O)NCC3CCCO3)c2c1 (configuration not stated) | 2.64
COc1cnc(N(C)C)nc1Sc1cccc(Cl)c1 | 1.13
NC(=O)CSc1nc(-c2ccccc2)c(-c2ccccc2)o1 | 0.94
Cc1ccc(C2CC2c2n[nH]c(=S)n2-c2ccc(Cl)cc2)cc1 (configuration not stated) | 1.23
Cc1ccnc(SCC(=O)n2c3c(c4ccccc42)CC(C)CC3)n1 (configuration not stated) | 0.86
FC(F)(F)c1nnc(-c2ccccc2)nc1Sc1ccccc1 | 0.91

Structure (SMILES) | PGE2 EC50 with compound [nM]
CCn1nnnc1SCC(=O)Nc1cccc(C)n1 | 1.44
COC(=O)c1c(NC(=O)c2ccccc2N(C)S(=O)(=O)c2ccccc2)sc2c1CCCC2 | 1.49
CCC(=O)Oc1ccc2c(C)cc(=O)oc2c1C(=O)c1ccccc1 | 1
Cc1ccc(S(=O)(=O)NCC(=O)N(c2ccccc2)C(C(=O)NCc2ccccc2)c2ccco2)cc1 (configuration not stated) | 1
Cn1c(=O)c2c(nc(CN3CCN(c4ccccc4)CC3)n2Cc2c(F)cccc2Cl)n(C)c1=O | 1.38
Fc1ccc(-c2cc(-c3ccccc3)nc(-n3cccn3)n2)cc1 | 1.63
CCOC(=O)C1CCN(c2c(C(=O)c3ccccc3)cnc3ccc(Cl)cc23)CC1 | 0.89
O=C(CN1CCCCC1)N1c2ccccc2Sc2ccc(C(F)(F)F)cc21 | 1.45
CC(C)C1(C)N=C(c2ncccc2C(=O)O)NC1=O (configuration not stated) | 2.52
CCCCCCn1c(COc2ccccc2F)nnc1SCC(=O)N1c2ccccc2NC(=O)C1(C)C | 0.93
CN1C(=O)/C(=C/c2ccccc2OCc2cccc(F)c2)N(C)C1=S | 0.81
CCCCn1c(-c2csc(CCC)c2)n[nH]c1=S | 1.28
Cc1cccc(Oc2sc(C(=O)c3ccccc3)c(N)c2C#N)c1 | 1.51
CSc1nc(Sc2ccccc2Cl)c2ccccc2n1 | 0.7
O=C(Nc1cc(C(F)(F)F)ccc1-n1cncn1)c1ccc(-c2ccccc2)cc1 | 1.15
CC(C)(C)n1nnnc1C(c1ccncc1)N(Cc1ccccc1)Cc1ccco1 (configuration not stated) | 1.03
Cc1cc(C)c(S(=O)(=O)c2ccccc2)c(OC(=O)c2c(Cl)cc(Cl)cc2Cl)n1 | 1.27
O=C(CN1CCCCCC1)Nc1ccccc1Oc1ccccc1 | 0.96
CCCc1cc(-c2n[nH]c(=S)n2C(C)c2ccccc2)cs1 (configuration not stated) | 1.2
